The test system of one data set is intracellular MRSA. It is filed as cell-based, Staphylococcus aureus. The settings on record: for %GFP+ rep 1 / z-scoreMRSA+ rep 1: replicate 1; for %GFP+ rep 2 / z-scoreMRSA+ rep 2: replicate 2; for %GFP+ rep 3 / z-scoreMRSA+ rep 3: replicate 3; for z-scoreMRSA+ mean: mean of 3 replicates. How it is done:
The cells were resuspended in cell culture medium without antibiotics, seeded with 10,000 cells/well into Costar flat-bottom 96-well plates (Corning, Amsterdam, the Netherlands), and were incubated overnight at 37°C/5% CO2. The next day, the bacteria were centrifuged at ≥1800 g for 15 min and resuspended in cold PBS + 5 mM ethylenediaminetetraacetic acid (EDTA). The number of CFUs present in the bacterial suspension was estimated from the optical density at 600 nm (OD600) by assuming 8x10^8 CFUs to be present in a bacterial suspension with OD600 = 1, based on prior titrations. The bacterial suspension was diluted in cell culture medium without antibiotics and added to the cells. Accuracy of the multiplicity of infection (MOI) was validated by plating serial dilutions of the MRSA inoculums on Difco TS agar plates (BD Biosciences). The calculated mean MOI throughout all experiments was 6.8 ± 4.6 (mean ± SD). Infected cells were centrifuged for 3 min at 150 g and incubated for 1 hour at 37°C/5% CO2. Next, the cells were incubated with fresh cell culture medium supplemented with 30 µg/ml gentamicin sulphate (Lonza BioWhittaker, Basel, Switzerland) for 15 min at 37°C/5% CO2 to kill residual extracellular bacteria. Infected cells were incubated overnight at 37°C/5% CO2 in cell culture medium in the presence of kinase inhibitors and 5 µg/ml gentamicin sulphate-containing medium to prevent the growth of extracellular bacteria. The solvent of the compounds, DMSO, was used at equal % v/v as a negative control. For the screen, each compound was tested in triplicate, on separate cell culture plates, resulting in triplicate values for each kinase inhibitor.
HeLa cells were harvested by trypsinization and fixed with 1% paraformaldehyde. Samples were measured on a FACSLyric with HTS extension (BD Biosciences). Flow cytometry data were analysed using FlowJo version 10 (TreeStar, Ashland, OR, USA). HeLa cells positive for GFP were gated to calculate the percentage of MRSA-infected cells. The cell count was used as surrogate readout of cell viability.
To identify potential “hit” compounds, the flow cytometry data were used to calculate standard z-scores using z = (x-μ)/σ – zneg, where x is total event count or the percent of GFP-positive cells from a single well, μ is the mean from wells of the plate, σ is the standard deviation of the plate and zneg is the mean z-score of the negative control of the plate (i.e., DMSO) ([Korbee et al., 2018]). To minimize the possibility that the presence of extreme values on a plate affected the z-scores, raw values that deviated two-fold from the negative controls were excluded when calculating plate means and standard deviations as used in the aforementioned formula. Compounds were considered a “hit” when z-scoreMRSA+ ≤ -2 and z-scoreHeLa ≥ -3 for cell count. In cases where compounds were screened twice, the average values were used to select hit compounds.

The test system of the next data set is HeLa cells. Kind of data set: Compound screen by flow cytometry: HeLa cell count as surrogate readout of cell viability (z-scoreHeLa). It is filed as cell-based, human. The settings on record: for cell count rep 1 / z-scoreHeLa rep 1: replicate 1; for cell count rep 2 / z-scoreHeLa rep 2: replicate 2; for cell count rep 3 / z-scoreHeLa rep 3: replicate 3; for z-scoreHeLa mean: mean of 3 replicates. Summed up:
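HeLa cells were infected with GFP-MRSA (mean MOI 6.8 ± 4.6) for 1 h, and extracellular bacteria were killed with 30 µg/ml gentamicin. Cells were then incubated overnight with kinase inhibitors in 5 µg/ml gentamicin, in triplicate against DMSO controls. Flow-cytometric cell count served as a viability surrogate, expressed as a plate z-score.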
In general terms: A flow cytometer gives signals particle by particle.

[1] abbreviates: PKIS compound screen raw data, MRSA-infected HeLa cells.
Setting [2] is: PKIS compound screen, MRSA-infected HeLa cells.
The mark [3] stands for this setting: PKIS compound screen, Yes/No call (effect without cell death).
[4] abbreviates: PKIS compound screen, Yes/No call on z-scoreMRSA+.
Where [5] appears, read: PKIS compound screen raw data, HeLa cell count.
[6] abbreviates: PKIS compound screen, HeLa cell count.
Setting [7] is: PKIS compound screen, Yes/No call on z-scoreHeLa.
The mark [8] stands for this setting: compound screen, MRSA-infected HeLa cells.
Setting [9] is: compound screen, HeLa cell count.
The mark [10] stands for this setting: PKIS compound screen, Yes/No call.
Setting [11] is: PKIS compounds raw data, MRSA-infected HeLa cells.
[12] abbreviates: PKIS compounds raw data, HeLa cell count.

Read-outs that look alike come from different tables or passages of the source.

On to `CCn1c(-c2nonc2N)nc2c(C#CC(C)(C)O)nc(OC[C@@H](N)c3ccccc3)cc21` [GSK938890A], for which, in the data set on intracellular MRSA (setting [1]), the “%GFP+ rep 1” value is recorded as 12.8%, the “%GFP+ rep 2” value is listed as 14.8% and the “%GFP+ rep 3” value is 15.1%. In the data set on intracellular MRSA (setting [2]), the “z-scoreMRSA+ mean” value was -1.38, the “z-scoreMRSA+ rep 1” value was -1.60, the “z-scoreMRSA+ rep 2” value is reported as -1.12 and the “z-scoreMRSA+ rep 3” value was -1.43. Moreover, the hit entry in the data set on intracellular MRSA (setting [3]) was “No”. Moreover, the effect entry in the data set on intracellular MRSA (setting [4]) was “No”. Further, in the data set on HeLa cells (setting [5]), the “cell count rep 1” value is 14299, the “cell count rep 2” value was determined as 35410 and the “cell count rep 3” value amounted to 42196. In the data set with HeLa cells (setting [6]), the z-scoreHeLa mean is recorded as -0.17, the “z-scoreHeLa rep 1” value is listed as -0.88, the “z-scoreHeLa rep 2” value is listed as 0.12 and the “z-scoreHeLa rep 3” value came to 0.27. Further, the cell death entry with HeLa cells (setting [7]) was “No”.
With `CCn1c(-c2nonc2N)nc2c(C#CC(C)(C)O)nc(OC[C@H](N)c3ccccc3)cc21` [GSK943949A], in the data set with intracellular MRSA (setting [1]), the “%GFP+ rep 1” value is 19.2%, the “%GFP+ rep 2” value was 16.3% and the “%GFP+ rep 3” value is listed as 15.7%. Also, the effect entry in the data set with intracellular MRSA (Yes/No call from z-scoreMRSA+) is “No”. For the same compound, the hit entry in the data set with intracellular MRSA (Yes/No: effect without cell death) is listed as “No”. Further, in the data set with intracellular MRSA (setting [8]), the “z-scoreMRSA+ mean” value is -1.63, the “z-scoreMRSA+ rep 1” value is reported as -1.42, the “z-scoreMRSA+ rep 2” value is given as -1.53 and the “z-scoreMRSA+ rep 3” value is -1.95. Besides, in the data set with HeLa cells (setting [5]), the “cell count rep 1” value was 779, the “cell count rep 2” value is 847 and the “cell count rep 3” value is 431. Further, the cell death entry in the data set on HeLa cells (Yes/No call from z-scoreHeLa) is recorded as “No”. Besides, in the data set on HeLa cells (setting [9]), the z-scoreHeLa mean is recorded as -2.76, the “z-scoreHeLa rep 1” value is -2.58, the “z-scoreHeLa rep 2” value is -2.66 and the “z-scoreHeLa rep 3” value was -3.04.
On to `CCn1c(-c2nonc2N)nc2c(C#CC(C)(C)O)nc(OCCNC)cc21` [GSK949675A], for which the effect entry in the data set on intracellular MRSA (setting [10]) is on record as “No”. Moreover, the hit result in the data set on intracellular MRSA (setting [3]) is recorded as “No”. Further, in the data set on intracellular MRSA (PKIS compound screen), the “z-scoreMRSA+ mean” value was found to be 0.28, the “z-scoreMRSA+ rep 1” value is recorded as 0.59, the “z-scoreMRSA+ rep 2” value is recorded as 0.84 and the “z-scoreMRSA+ rep 3” value was -0.59. Also, in the data set on intracellular MRSA (setting [11]), the “%GFP+ rep 1” value came out at 15.0%, the “%GFP+ rep 2” value stood at 16.0% and the “%GFP+ rep 3” value was found to be 13.9%. Further, in the data set with HeLa cells (setting [10]), the cell death entry is “No”. In the data set on HeLa cells (PKIS compound screen), the z-scoreHeLa mean stood at 1.02, the “z-scoreHeLa rep 1” value was 0.13, the “z-scoreHeLa rep 2” value is reported as 1.22 and the “z-scoreHeLa rep 3” value is listed as 1.70. For the same compound, in the data set with HeLa cells (setting [12]), the “cell count rep 1” value is 4918, the “cell count rep 2” value was found to be 5879 and the “cell count rep 3” value was 10520.
For `NS(=O)(=O)c1cccc(-c2cc3ccncc3cc2OCc2ccccc2)c1` [GSK980961A], in the data set with intracellular MRSA (setting [1]), the “%GFP+ rep 1” value stood at 13.7%, the “%GFP+ rep 2” value stood at 14.8% and the “%GFP+ rep 3” value stood at 15.5%. In the data set with intracellular MRSA (setting [2]), the “z-scoreMRSA+ mean” value is given as -1.25, the “z-scoreMRSA+ rep 1” value was -1.32, the “z-scoreMRSA+ rep 2” value was -1.12 and the “z-scoreMRSA+ rep 3” value is reported as -1.31. Further, the hit result in the data set on intracellular MRSA (setting [3]) is listed as “No”. The effect entry in the data set with intracellular MRSA (setting [4]) is “No”. Moreover, in the data set on HeLa cells (setting [5]), the “cell count rep 1” value amounted to 14876, the “cell count rep 2” value was found to be 28602 and the “cell count rep 3” value is given as 41262. Also, in the data set with HeLa cells (setting [6]), the z-scoreHeLa mean was -0.61, the “z-scoreHeLa rep 1” value is recorded as -0.80, the “z-scoreHeLa rep 2” value is on record as -1.15 and the “z-scoreHeLa rep 3” value is 0.12. For the same compound, in the data set with HeLa cells (setting [7]), the cell death entry is “No”.
For the compound `COc1cc2ncn(-c3cc(OCc4ccccc4C(F)(F)F)c(C(=O)N(C)C)s3)c2cc1OC` [GSK1030062A], in the data set with intracellular MRSA (setting [1]), the “%GFP+ rep 1” value is 17.3%, the “%GFP+ rep 2” value worked out at 19.4% and the “%GFP+ rep 3” value was 19.3%. Also, in the data set with intracellular MRSA (setting [2]), the “z-scoreMRSA+ mean” value is given as -0.02, the “z-scoreMRSA+ rep 1” value is reported as -0.18, the “z-scoreMRSA+ rep 2” value was determined as 0.26 and the “z-scoreMRSA+ rep 3” value is given as -0.15. Further, in the data set on intracellular MRSA (setting [3]), the hit result is “No”. Further, in the data set on intracellular MRSA (setting [4]), the effect entry was “No”. Besides, in the data set on HeLa cells (setting [5]), the “cell count rep 1” value is 10049, the “cell count rep 2” value is reported as 31389 and the “cell count rep 3” value is given as 32107. Further, in the data set on HeLa cells (setting [6]), the z-scoreHeLa mean is -1.17, the “z-scoreHeLa rep 1” value is listed as -1.53, the “z-scoreHeLa rep 2” value was -0.63 and the “z-scoreHeLa rep 3” value is given as -1.34. Also, the cell death result with HeLa cells (setting [7]) is on record as “No”.
Take `c1ccc(-c2cc3ccncc3cc2OC2CCNCC2)cc1` [GSK1122999D]: in the data set with intracellular MRSA (setting [1]), the “%GFP+ rep 1” value is 16.9%, the “%GFP+ rep 2” value worked out at 18.4% and the “%GFP+ rep 3” value is recorded as 20.9%. In the data set with intracellular MRSA (setting [2]), the “z-scoreMRSA+ mean” value was -0.29, the “z-scoreMRSA+ rep 1” value is -0.50, the “z-scoreMRSA+ rep 2” value is on record as -0.28 and the “z-scoreMRSA+ rep 3” value is -0.09. The effect entry with intracellular MRSA (setting [10]) is “No”. The hit result with intracellular MRSA (setting [3]) is reported as “No”. Moreover, in the data set with intracellular MRSA (setting [4]), the effect result is “No”. Also, in the data set with intracellular MRSA (PKIS compound screen), the “z-scoreMRSA+ mean” value stood at 0.55, the “z-scoreMRSA+ rep 1” value was determined as 0.42, the “z-scoreMRSA+ rep 2” value is listed as 0.40 and the “z-scoreMRSA+ rep 3” value is 0.84. In the data set with intracellular MRSA (setting [11]), the “%GFP+ rep 1” value came to 29.2%, the “%GFP+ rep 2” value stood at 28.1% and the “%GFP+ rep 3” value is listed as 31.8%. Also, in the data set with HeLa cells (setting [5]), the “cell count rep 1” value is 28278, the “cell count rep 2” value was 18056 and the “cell count rep 3” value came out at 22119. Further, in the data set on HeLa cells (setting [6]), the z-scoreHeLa mean was -0.31, the “z-scoreHeLa rep 1” value is -0.33, the “z-scoreHeLa rep 2” value is reported as -1.24 and the “z-scoreHeLa rep 3” value is given as 0.62. The cell death result in the data set with HeLa cells (setting [10]) was “No”. The cell death entry with HeLa cells (setting [7]) was “No”. In the data set on HeLa cells (PKIS compound screen), the z-scoreHeLa mean stood at 0.77, the “z-scoreHeLa rep 1” value was 1.62, the “z-scoreHeLa rep 2” value worked out at 0.23 and the “z-scoreHeLa rep 3” value was found to be 0.45. In addition, in the data set with HeLa cells (setting [12]), the “cell count rep 1” value was 8742, the “cell count rep 2” value was 6353 and the “cell count rep 3” value was 6306.
